Consider 18 molecules from ChEMBL document CHEMBL3244280, “Thiazolinone analogues of indolmycin with antiviral and antibacterial activity” (J Med Chem, 1978).

The structures appear in SMILES notation. ≈ marks a conversion by molar mass, not a printed value. Calls of active or inactive are those of the source.

Data set [1] can be described thus: Cytotoxicity against BHK cells up to 100 ug/ml by carbol fuschin assay. The conditions noted are these: hamster. It is filed as cell-based, Mesocricetus auratus.
Data set [2] concerns Streptococcus pyogenes. The data set can be described thus: Antibacterial activity against Streptococcus pyogenes CN10 up to 200 ug/ml. It is filed as functional, organism-based.
Data set [3] concerns Coxsackievirus B1. The data set can be described thus: Antiviral activity against Coxsackievirus B1 infected in human HeLa cells up to 100 ug/ml by agar diffusion assay. Type of data set: functional, organism-based. On the technique in general: A growth-free zone around the sample is the usual read-out of agar diffusion tests.
The test system of data set [4] is Enterococcus faecalis. The data set can be described thus: Antibacterial activity against Streptococcus faecalis I up to 200 ug/ml. It is filed as functional, organism-based.
For data set [5], the system named is Bacillus subtilis. The data set can be described thus: Antibacterial activity against Bacillus subtilis up to 200 ug/ml. It is filed as functional, organism-based.
The subject of a further data set is HeLa. The data set can be described thus: Cytotoxicity against human HeLa cells up to 100 ug/ml. It is filed as cell-based.
Data set [6] has as its system Staphylococcus aureus. In words: Antibacterial activity against Staphylococcus aureus Oxford up to 200 ug/ml. It is filed as functional, organism-based.
The subject of data set [7] is Staphylococcus aureus. In words: Antibacterial activity against Staphylococcus aureus Russel up to 200 ug/ml. Type of data set: functional, organism-based.
A further data set has as its system Human alphaherpesvirus 1. The data set can be described thus: Antiviral activity against Herpes simplex virus 1 infected in chick embryo fibroblasts by plaque reduction assay. Type of data set: functional, organism-based.
Data set [8] concerns Staphylococcus aureus. The data set can be described thus: Antibacterial activity against Staphylococcus aureus 1517 up to 200 ug/ml. Type of data set: functional, organism-based.
The subject of data set [9] is Influenza A virus. In words: Antiviral activity against influenza A virus NWS/H0N1 infected in BHK cells up to 100 ug/ml by agar diffusion assay. Type of data set: functional, organism-based.
In data set [10] the test system is Influenza A virus. In words: Antiviral activity against influenza A virus NWS/H0N1 infected in BHK cells at 1 mg/ml by agar diffusion assay. Type of data set: functional. The conditions noted are these: read-out: IZ.
In data set [11] the test system is Staphylococcus aureus. The data set can be described thus: Antibacterial activity against Staphylococcus aureus 1517. Type of data set: functional.
Data set [12] concerns Bacillus subtilis. The data set can be described thus: Antibacterial activity against Bacillus subtilis. It is filed as functional.
The test system of data set [13] is Coxsackievirus B1. In words: Antiviral activity against Coxsackievirus B1 infected in human HeLa cells at 1 mg/ml by agar diffusion assay. It is filed as functional. The note with it: Enterovirus B; read-out: IZ.
The subject of data set [14] is Staphylococcus aureus. In words: Antibacterial activity against Staphylococcus aureus Oxford. It is filed as functional.
The test system of data set [15] is Streptococcus pyogenes. The data set can be described thus: Antibacterial activity against Streptococcus pyogenes CN10. It is filed as functional.
Data set [16] concerns Enterococcus faecalis. In words: Antibacterial activity against Streptococcus faecalis I. It is filed as functional.
For data set [17], the system named is Staphylococcus aureus. The data set can be described thus: Antibacterial activity against Staphylococcus aureus Russel. It is filed as functional.
Data set [18] can be described thus: Cytotoxicity against BHK cells. The note with it: hamster. Type of data set: cell-based, Mesocricetus auratus.
Data set [19] relates to Influenza A virus. In words: Antiviral activity against influenza A virus NWS/H0N1 infected in BHK cells by agar diffusion assay. It is filed as functional.

On to `CN1C(=N)SC(Cc2c[nH]c3ccccc23)C1=O` (racemic), for which the Activity result (in data set [1]; in the data set with HeLa) was “Non-toxic” throughout. The outcome in the data set with Streptococcus pyogenes [2], with Coxsackievirus B1 [3], in the data set with Enterococcus faecalis [4], in the data set with Bacillus subtilis [5], in the data set on Staphylococcus aureus [6] and in the data set with Staphylococcus aureus [7] was inactive. The result in the data set on Human alphaherpesvirus 1, with Staphylococcus aureus [8] and in the data set with Influenza A virus [9] was inactive.

By MIC is commonly meant the smallest concentration in the dilution series that meets the test's criterion for growth inhibition. On to `NC1=NC(=O)C(Cc2c[nH]c3ccccc23)S1` (racemic), for which the zone of inhibition at 1000 µg/mL with Influenza A virus [10] and with Coxsackievirus B1 [13] was 0 mm throughout. Moreover, the MIC in the data set on Staphylococcus aureus [11] was 200 µg/mL (≈ 815 µM); in the data set on Bacillus subtilis [12] it was more than 200 µg/mL; in the data set with Staphylococcus aureus [14], 200 µg/mL (≈ 815 µM); against Streptococcus pyogenes [15], more than 200 µg/mL; against Enterococcus faecalis [16] it was 200 µg/mL (≈ 815 µM); against Staphylococcus aureus [17], 200 µg/mL (≈ 815 µM). Moreover, the outcome in the data set on Human alphaherpesvirus 1 was inactive.

Turning to `CNC1=NC(=O)[C@@H]([C@@H](C)c2c[nH]c3ccccc23)S1`, the Activity entry (in data set [1]; with HeLa) was “Non-toxic” throughout. Besides, the outcome in the data set with Streptococcus pyogenes [2], with Coxsackievirus B1 [3], with Enterococcus faecalis [4], in the data set with Bacillus subtilis [5], in the data set with Staphylococcus aureus [6] and with Staphylococcus aureus [7] was inactive. The result in the data set on Human alphaherpesvirus 1, with Staphylococcus aureus [8] and with Influenza A virus [9] was inactive.

As for `CCNC1=NC(=O)C(Cc2c[nH]c3ccccc23)S1` (racemic), the Activity result (in [1]; in the data set on HeLa) was “Non-toxic” in each case. Besides, the result in the data set on Streptococcus pyogenes [2], in the data set on Coxsackievirus B1 [3], in the data set with Enterococcus faecalis [4], in the data set on Bacillus subtilis [5], in the data set with Staphylococcus aureus [6] and in the data set on Staphylococcus aureus [7] was inactive. Also, the outcome in the data set on Human alphaherpesvirus 1, with Staphylococcus aureus [8] and with Influenza A virus [9] was inactive.

For `O=C1N/C(=N\c2ccccc2)SC1Cc1c[nH]c2ccccc12` (racemic), the Activity entry (in data set [1]; in the data set with HeLa) was “Non-toxic” throughout. Further, the outcome with Streptococcus pyogenes [2], in the data set on Coxsackievirus B1 [3], in the data set on Enterococcus faecalis [4], in the data set with Bacillus subtilis [5], in the data set on Staphylococcus aureus [6] and with Staphylococcus aureus [7] was inactive. For the same molecule, the result with Human alphaherpesvirus 1, with Staphylococcus aureus [8] and with Influenza A virus [9] was inactive.

Consider `CNC1=NC(=O)[C@H]([C@H](C)c2c[nH]c3ccccc23)S1` (racemic), for which the outcome with Human alphaherpesvirus 1 was inactive.

For the molecule `CNC1=NC(=O)[C@H]([C@H](C)c2c[nH]c3ccccc23)S1`, the outcome in the data set on Human alphaherpesvirus 1 was inactive.

In the case of `C[C@H](c1c[nH]c2ccccc12)[C@@H]1SC(NCCN(C)C)=NC1=O.Cl` (racemic), the Activity result (in data set [1]; in the data set with HeLa) was “Non-toxic” each time. In addition, the result with Streptococcus pyogenes [2], in the data set with Coxsackievirus B1 [3], with Enterococcus faecalis [4], with Bacillus subtilis [5], with Staphylococcus aureus [6] and with Staphylococcus aureus [7] was inactive. The outcome with Human alphaherpesvirus 1, in the data set on Staphylococcus aureus [8] and with Influenza A virus [9] was inactive.

With `C[C@H](c1c[nH]c2ccccc12)[C@@H]1SC(N(C)C)=NC1=O` (racemic), the zone of inhibition at 1000 µg/mL in the data set on Influenza A virus [10] and in the data set with Coxsackievirus B1 [13] was 0 mm in each case. The MIC in the data set on Staphylococcus aureus [11] is 20 µg/mL (≈ 69.6 µM); against Bacillus subtilis [12], more than 200 µg/mL; in the data set with Staphylococcus aureus [14], 20 µg/mL (≈ 69.6 µM); in the data set on Streptococcus pyogenes [15], more than 200 µg/mL; with Enterococcus faecalis [16], more than 200 µg/mL; in the data set on Staphylococcus aureus [17], 20 µg/mL (≈ 69.6 µM). Also, the outcome with Human alphaherpesvirus 1 was inactive.

On to `CC1(C)S[C@@H]2[C@H](NC(=O)[C@H](N)c3ccccc3)C(=O)N2[C@H]1C(=O)O` [AMPICILLIN], for which the MIC in the data set with Staphylococcus aureus [11] came out at 20 µg/mL (≈ 57.2 µM); against Bacillus subtilis [12], 2 µg/mL (≈ 5.72 µM); in the data set with Staphylococcus aureus [14], 2 µg/mL (≈ 5.72 µM); in the data set on Streptococcus pyogenes [15] it was 2 µg/mL (≈ 5.72 µM); against Enterococcus faecalis [16], 2 µg/mL (≈ 5.72 µM); against Staphylococcus aureus [17] it was 2 µg/mL (≈ 5.72 µM).

`CN(C)C1=NC(=O)C(Cc2c[nH]c3ccccc23)S1` (racemic): the Activity result (in [1]; in the data set on HeLa) was “Non-toxic” each time. Besides, the result with Streptococcus pyogenes [2], in the data set with Coxsackievirus B1 [3], with Enterococcus faecalis [4], in the data set with Bacillus subtilis [5], in the data set with Staphylococcus aureus [6] and in the data set with Staphylococcus aureus [7] was inactive. Besides, the result in the data set with Human alphaherpesvirus 1, in the data set on Staphylococcus aureus [8] and with Influenza A virus [9] was inactive.

With `O=C1N=C(NCCO)SC1Cc1c[nH]c2ccccc12` (racemic), the Activity entry (in data set [1]; in the data set with HeLa) was “Non-toxic” throughout. In addition, the outcome in the data set with Streptococcus pyogenes [2], in the data set on Coxsackievirus B1 [3], in the data set with Enterococcus faecalis [4], in the data set on Bacillus subtilis [5], in the data set on Staphylococcus aureus [6] and in the data set on Staphylococcus aureus [7] was inactive. For the same molecule, the outcome in the data set with Human alphaherpesvirus 1, in the data set on Staphylococcus aureus [8] and in the data set with Influenza A virus [9] was inactive.

Consider `C/N=C1/SC(Cc2c[nH]c3ccccc23)C(=O)N1C` (racemic), for which the Activity entry (in data set [1]; in the data set on HeLa) was “Non-toxic” in each case. The outcome in the data set with Streptococcus pyogenes [2], in the data set with Coxsackievirus B1 [3], in the data set on Enterococcus faecalis [4], in the data set on Bacillus subtilis [5], in the data set with Staphylococcus aureus [6] and with Staphylococcus aureus [7] was inactive. Further, the outcome in the data set with Human alphaherpesvirus 1, in the data set with Staphylococcus aureus [8] and in the data set with Influenza A virus [9] was inactive.

Consider `CCN1C(=N)SC(Cc2c[nH]c3ccccc23)C1=O` (racemic), for which the Activity result (in data set [1]; in the data set with HeLa) was “Non-toxic” each time. In addition, the outcome in the data set on Streptococcus pyogenes [2], in the data set on Coxsackievirus B1 [3], with Enterococcus faecalis [4], in the data set with Bacillus subtilis [5], in the data set with Staphylococcus aureus [6] and with Staphylococcus aureus [7] was inactive. Besides, the result in the data set on Human alphaherpesvirus 1, with Staphylococcus aureus [8] and in the data set on Influenza A virus [9] was inactive.

For `O=C1NC(=S)SC1Cc1c[nH]c2ccccc12` (racemic), the Activity result (in data set [1]; in the data set on HeLa) was “Non-toxic” each time. Moreover, the result in the data set on Streptococcus pyogenes [2], with Coxsackievirus B1 [3], in the data set on Enterococcus faecalis [4], with Bacillus subtilis [5], in the data set on Staphylococcus aureus [6] and in the data set on Staphylococcus aureus [7] was inactive. The result in the data set with Human alphaherpesvirus 1, in the data set on Staphylococcus aureus [8] and in the data set with Influenza A virus [9] was inactive.

`O=C1N=C(NCc2ccccc2)SC1Cc1c[nH]c2ccccc12` (racemic): the Activity entry (in data set [1]; in the data set on HeLa) was “Non-toxic” throughout. In addition, the outcome with Streptococcus pyogenes [2], with Coxsackievirus B1 [3], with Enterococcus faecalis [4], with Bacillus subtilis [5], in the data set on Staphylococcus aureus [6] and with Staphylococcus aureus [7] was inactive. Moreover, the result in the data set with Human alphaherpesvirus 1, in the data set with Staphylococcus aureus [8] and in the data set with Influenza A virus [9] was inactive.

Take `CNC1=NC(=O)C(Cc2cn(C)c3ccccc23)S1` (racemic): the Activity result (in data set [1]; with HeLa) was “Non-toxic” throughout. Also, the result in the data set on Streptococcus pyogenes [2], in the data set on Coxsackievirus B1 [3], in the data set with Enterococcus faecalis [4], with Bacillus subtilis [5], with Staphylococcus aureus [6] and in the data set on Staphylococcus aureus [7] was inactive. Moreover, the result in the data set on Human alphaherpesvirus 1, with Staphylococcus aureus [8] and in the data set with Influenza A virus [9] was inactive.

As for `C[C@H](c1c[nH]c2ccccc12)[C@@H]1SC(N)=NC1=O`, the zone of inhibition at 1000 µg/mL with Influenza A virus [10] and in the data set with Coxsackievirus B1 [13] was 0 mm throughout. For the same molecule, the MIC in the data set on Staphylococcus aureus [11] amounted to 20 µg/mL (≈ 77.1 µM); in the data set on Bacillus subtilis [12] it was 200 µg/mL (≈ 771 µM); with Streptococcus pyogenes [15], 200 µg/mL (≈ 771 µM); with Enterococcus faecalis [16], 20 µg/mL (≈ 77.1 µM); with Staphylococcus aureus [17] it was 20 µg/mL (≈ 77.1 µM). In addition, in data set [18], the MCC came out at 100 µg/mL. The result in the data set on Human alphaherpesvirus 1 was inactive. This molecule also yielded a PDD50 in the data set on Influenza A virus [19] of 50 µg/mL.
